Reference: article PMC6691788, “Design and synthesis of phthalazine-based compounds as potent anticancer agents with potential antiangiogenic activity via VEGFR-2 inhibition” (Journal of Enzyme Inhibition and Medicinal Chemistry, 2019)

Assays:
Test in all cases: NCI 60 cell panel SRB screen
[1] = system: HL-60(TB); type: cell-based; details: Homo sapiens
[2] = system: MOLT-4; type: cell-based; details: Homo sapiens
[3] = system: SR; type: cell-based; details: Homo sapiens
[4] = system: NCI-H322M; type: cell-based; details: Homo sapiens
[5] = system: COLO 205; type: cell-based; details: Homo sapiens
[6] = system: HCT-116; type: cell-based; details: Homo sapiens
[7] = system: HCT-15; type: cell-based; details: Homo sapiens
[8] = system: HT29; type: cell-based; details: Homo sapiens, HT-29
[9] = system: KM12; type: cell-based; details: Homo sapiens
[10] = system: SW-620; type: cell-based; details: Homo sapiens
[11] = system: SNB-75; type: cell-based; details: Homo sapiens
[12] = system: U251; type: cell-based; details: Homo sapiens, U-251
[13] = system: MALME-3M; type: cell-based; details: Homo sapiens
[14] = system: M14; type: cell-based; details: Homo sapiens
[15] = system: SK-MEL-28; type: cell-based; details: Homo sapiens
[16] = system: UACC-62; type: cell-based
[17] = system: IGROV1; type: cell-based; details: Homo sapiens, IGROV-1
[18] = system: OVCAR-5; type: cell-based; details: Homo sapiens
[19] = system: 786-0; type: cell-based; details: Homo sapiens
[20] = system: A498; type: cell-based; details: Homo sapiens
[21] = system: CAKI-1; type: cell-based, human; details: Homo sapiens; CAKI-1, single dose 10 μM; read-out: percent cell growth promotion
[22] = system: RXF 393; type: cell-based; details: Homo sapiens
[23] = system: TK-10; type: cell-based, human; details: Homo sapiens; TK-10, single dose 10 μM; read-out: percent cell growth promotion
[24] = system: DU-145; type: cell-based; details: Homo sapiens
[25] = system: HS 578T; type: cell-based; details: Homo sapiens
[26] = system: BT-549; type: cell-based; details: Homo sapiens
[27] = 5 log dose, 48 h, read-out: LC50 (the source's name)
[28] = single dose 10 μM, read-out: percent cell growth promotion

COc1cccc(NCc2nnc(Nc3ccc(Cl)cc3)c3ccccc23)c1 [Compound 16d, N-(4-Chlorophenyl)-4-((3-methoxyphenylamino)methyl)phthalazin-1-amine]
GI50 ([1]; 5 log dose): 3.78 µM
IC (TGI) ([1]; 5 log dose): 13.1 µM
CC50 [1, 27]: > 25 µM
activity at 10 µM [1, 28]: -27.1%
GI50 ([2]; MOLT-4, 5 log dose): 1.1 µM
IC (TGI) ([2]; MOLT-4, 5 log dose): 7.57 µM
CC50 ([2]; MOLT-4, 5 log dose, 48 h, read-out: LC50 (the source's name)): > 25 µM
activity at 10 µM ([2]; MOLT-4, single dose 10 μM, read-out: percent cell growth promotion): -27.2%
GI50 ([3]; 5 log dose): 0.97 µM
IC (TGI) ([3]; 5 log dose): 8.85 µM
CC50 [3, 27]: > 25 µM
activity at 10 µM [3, 28]: -24.5%
GI50 ([4]; 5 log dose): 1.4 µM
IC (TGI) ([4]; 5 log dose): 7.85 µM
CC50 [4, 27]: > 25 µM
activity at 10 µM [4, 28]: 3.32%
GI50 ([5]; COLO 205, 5 log dose): 0.49 µM
IC (TGI) ([5]; COLO 205, 5 log dose): 4.01 µM
CC50 ([5]; COLO 205, 5 log dose, 48 h, read-out: LC50 (the source's name)): 15.4 µM
activity at 10 µM ([5]; COLO 205, single dose 10 μM, read-out: percent cell growth promotion): -22.2%
GI50 ([6]; HCT-116, 5 log dose): 0.88 µM
IC (TGI) ([6]; HCT-116, 5 log dose): 4.2 µM
LC50 (lethal concentration 50%) ([6]; HCT-116, 5 log dose, 48 h): 11.2 µM
activity at 10 µM ([6]; HCT-116, single dose 10 μM, read-out: percent cell growth promotion): -44.2%
GI50 ([7]; HCT-15, 5 log dose): 1.78 µM
IC (TGI) ([7]; HCT-15, 5 log dose): 7.56 µM
CC50 ([7]; HCT-15, 5 log dose, 48 h, read-out: LC50 (the source's name)): > 25 µM
activity at 10 µM ([7]; HCT-15, single dose 10 μM, read-out: percent cell growth promotion): -18.1%
GI50 ([8]; HT29, 5 log dose): 0.34 µM
IC (TGI) ([8]; HT29, 5 log dose): 3.62 µM
CC50 ([8]; HT29, 5 log dose, 48 h, read-out: LC50 (the source's name)): 12 µM
activity at 10 µM ([8]; HT29, single dose 10 μM, read-out: percent cell growth promotion): -21%
GI50 ([9]; KM12, 5 log dose): 0.13 µM
IC (TGI) ([9]; KM12, 5 log dose): 6.52 µM
CC50 ([9]; KM12, 5 log dose, 48 h, read-out: LC50 (the source's name)): 18.6 µM
activity at 10 µM ([9]; KM12, single dose 10 μM, read-out: percent cell growth promotion): -24.9%
GI50 ([10]; SW-620, 5 log dose): 2.98 µM
IC (TGI) ([10]; SW-620, 5 log dose): 8.13 µM
CC50 ([10]; SW-620, 5 log dose, 48 h, read-out: LC50 (the source's name)): 22.2 µM
activity at 10 µM ([10]; SW-620, single dose 10 μM, read-out: percent cell growth promotion): 11.9%
GI50 ([11]; SNB-75, 5 log dose): 0.29 µM
IC (TGI) ([11]; SNB-75, 5 log dose): 5.27 µM
LC50 (concentration killing 50% of cells) ([11]; SNB-75, 5 log dose, 48 h): 23.1 µM
activity at 10 µM ([11]; SNB-75, single dose 10 μM, read-out: percent cell growth promotion): -6.06%
GI50 ([12]; U251, 5 log dose): 2.78 µM
IC (TGI) ([12]; U251, 5 log dose): 6.54 µM
CC50 ([12]; U251, 5 log dose, 48 h, read-out: LC50 (the source's name)): > 25 µM
activity at 10 µM ([12]; U251, single dose 10 μM, read-out: percent cell growth promotion): -56.2%
GI50 ([13]; Malme-3M): 1.22 µM
IC (TGI) ([13]; Malme-3M, read-out: TGI): 6.23 µM
activity at 10 µM ([13]; Malme-3M, read-out: percent cell growth promotion): -22%
CC50 ([13]; MALME-3M, 5 log dose, 48 h, read-out: LC50 (the source's name)): 17.3 µM
GI50 ([14]; M14): 0.85 µM
IC (TGI) ([14]; M14, read-out: TGI): 4.69 µM
activity at 10 µM ([14]; M14, read-out: percent cell growth promotion): -15.7%
CC50 ([14]; M14, 5 log dose, 48 h, read-out: LC50 (the source's name)): 12.9 µM
GI50 ([15]; SK-MEL-28): 2.62 µM
IC (TGI) ([15]; SK-MEL-28, read-out: TGI): 6.17 µM
activity at 10 µM ([15]; SK-MEL-28, read-out: percent cell growth promotion): -16.1%
CC50 ([15]; SK-MEL-28, 5 log dose, 48 h, read-out: LC50 (the source's name)): 14.5 µM
GI50 ([16]; Homo sapiens, UACC-62): 1 µM
activity at 10 µM ([16]; Homo sapiens, UACC-62, read-out: percent cell growth promotion): -29.2%
CC50 ([16]; Homo sapiens, UACC-62, 5 log dose, 48 h, read-out: LC50 (the source's name)): 20.1 µM
TGI ([16]; UACC-62, 5 log dose): 5.76 µM
GI50 ([17]; IGROV1, 5 log dose): 0.9 µM
IC (TGI) ([17]; IGROV1, 5 log dose): 6.3 µM
CC50 ([17]; IGROV1, 5 log dose, 48 h, read-out: LC50 (the source's name)): > 25 µM
activity at 10 µM ([17]; IGROV1, single dose 10 μM, read-out: percent cell growth promotion): 1.51%
GI50 ([18]; OVCAR-5, 5 log dose): 3.38 µM
IC (TGI) ([18]; OVCAR-5, 5 log dose): 11.8 µM
CC50 ([18]; OVCAR-5, 5 log dose, 48 h, read-out: LC50 (the source's name)): > 25 µM
activity at 10 µM ([18]; OVCAR-5, single dose 10 μM, read-out: percent cell growth promotion): 8.44%
GI50 ([19]; 786-0, 5 log dose): 2.22 µM
IC (TGI) ([19]; 786-0, 5 log dose): 7.63 µM
CC50 ([19]; 786-0, 5 log dose, 48 h, read-out: LC50 (the source's name)): 24.4 µM
activity at 10 µM ([19]; 786-0, single dose 10 μM, read-out: percent cell growth promotion): -5.76%
GI50 ([20]; A498, 5 log dose): 1.27 µM
IC (TGI) ([20]; A498, 5 log dose): 4.42 µM
CC50 ([20]; A498, 5 log dose, 48 h, read-out: LC50 (the source's name)): 11.5 µM
activity at 10 µM ([20]; A498, single dose 10 μM, read-out: percent cell growth promotion): -26.8%
activity at 10 µM [21]: 9.01%
GI50 ([22]; RXF 393, 5 log dose): 2.16 µM
IC (TGI) ([22]; RXF 393, 5 log dose): 6.11 µM
CC50 ([22]; RXF 393, 5 log dose, 48 h, read-out: LC50 (the source's name)): 15.9 µM
activity at 10 µM ([22]; RXF 393, single dose 10 μM, read-out: percent cell growth promotion): -11.6%
activity at 10 µM [23]: -40.9%
GI50 ([24]; DU-145, 5 log dose): 2.4 µM
IC (TGI) ([24]; DU-145, 5 log dose): 6.52 µM
CC50 ([24]; DU-145, 5 log dose, 48 h, read-out: LC50 (the source's name)): 17.2 µM
activity at 10 µM ([24]; DU-145, single dose 10 μM, read-out: percent cell growth promotion): 8.3%
GI50 ([25]; Hs-578T): 2.9 µM
IC (TGI) ([25]; Hs-578T, read-out: TGI): 11.5 µM
activity at 10 µM ([25]; Hs-578T, read-out: percent cell growth promotion): 0.54%
CC50 ([25]; HS 578T, 5 log dose, 48 h, read-out: LC50 (the source's name)): > 25 µM
GI50 ([26]; BT-549): 1.9 µM
IC (TGI) ([26]; BT-549, read-out: TGI): 7.42 µM
activity at 10 µM ([26]; BT-549, read-out: percent cell growth promotion): -12.2%
CC50 ([26]; BT-549, 5 log dose, 48 h, read-out: LC50 (the source's name)): 24.8 µM
